Data from the supplement of paper PMC10307832.

What was measured:
Experiment in all cases: relative viability (nuclei count vs DMSO), 5 days (fraction); higher = more cells survive
[1] = tested on: COR-L23
Procedure, shortened: (§1)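 Dosing by pin tool came one day after lung cancer cell lines were seeded in 1536-well plates, using either one drug or a fixed anchor-drug dose plus five library-drug doses (not always all listed) in √10 steps. After 5 days, nuclei were counted on 4× images. Relative viability is treated-well nuclei count divided by vehicle-well nuclei count, and values are medians of duplicate plates.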

[2] = tested on: ChaGo-K-1
Procedure, shortened: as §1

[3] = tested on: PC-14
Procedure, shortened: as §1

[4] = tested on: HOP-62
Procedure, shortened: as §1

[5] = tested on: H3255
Procedure, shortened: as §1

[6] = tested on: HARA
Procedure, shortened: as §1

[7] = tested on: NCI-H1437
Procedure, shortened: as §1

[8] = tested on: NCI-H441
Procedure, shortened: as §1

[9] = tested on: NCI-H2085
Procedure, shortened: as §1

[10] = tested on: NCI-H1666
Procedure, shortened: as §1

[11] = tested on: NCI-H661
Procedure, shortened: as §1

[12] = tested on: LXF-289
Procedure, shortened: as §1

[13] = tested on: LCLC-97TM1
Procedure, shortened: as §1

[14] = tested on: NCI-H1944
Procedure, shortened: as §1

[15] = tested on: NCI-H2126
Procedure, shortened: as §1

[16] = tested on: NCI-H2087
Procedure, shortened: as §1

[17] = tested on: NCI-H3122
Procedure, shortened: as §1

[18] = tested on: EPLC-272H
Procedure, shortened: as §1

[19] = tested on: NCI-H1650
Procedure, shortened: as §1

[20] = tested on: NCI-H1793
Procedure, shortened: as §1

[21] = tested on: HCC-78
Procedure, shortened: as §1

[22] = tested on: NCI-H1395
Procedure, shortened: as §1

[23] = tested on: NCI-H596
Procedure, shortened: as §1

`CCNC(=O)c1noc(-c2cc(C(C)C)c(O)cc2O)c1-c1ccc(CN2CCOCC2)cc1` [Luminespib] + COc1cccc2cc(-c3nc([C@H]4CC[C@H](C(=O)O)CC4)n4ncnc(N)c34)[nH]c12 [OSI-027] (partner 0.5 µM) gave a relative viability ([1]; first compound 0.002 µM) of 0.925, a relative viability ([1]; first compound 0.006325 µM) of 0.655 and a relative viability ([1]; first compound 0.02 µM) of 0.508. The relative viability ([1]; first compound 0.06325 µM) was 0.079, the relative viability ([1]; first compound 0.2 µM) was 0.0776 and the relative viability ([2]; first compound 0.002 µM) was 0.562. The relative viability ([2]; first compound 0.006325 µM) was 0.612, the relative viability ([2]; first compound 0.02 µM) was 0.525 and the relative viability ([2]; first compound 0.06325 µM) was 0.199. It also gave a relative viability ([2]; first compound 0.2 µM) of 0.161, a relative viability ([3]; first compound 0.002 µM) of 0.918 and a relative viability ([3]; first compound 0.006325 µM) of 0.598. For the same molecule, the relative viability ([3]; first compound 0.02 µM) was 0.11, the relative viability ([3]; first compound 0.06325 µM) was 0.0462 and the relative viability ([3]; first compound 0.2 µM) was 0.0587. It also gave a relative viability ([4]; first compound 0.002 µM) of 0.83, a relative viability ([4]; first compound 0.006325 µM) of 0.758 and a relative viability ([4]; first compound 0.02 µM) of 0.648. It also gave a relative viability ([4]; first compound 0.06325 µM) of 0.428, a relative viability ([4]; first compound 0.2 µM) of 0.111 and a relative viability ([5]; first compound 0.002 µM) of 0.596. For the same molecule, the relative viability ([5]; first compound 0.006325 µM) was 0.628, the relative viability ([5]; first compound 0.06325 µM) was 0.577 and the relative viability ([5]; first compound 0.2 µM) was 0.249. It also gave a relative viability ([6]; first compound 0.002 µM) of 0.511, a relative viability ([6]; first compound 0.006325 µM) of 0.281 and a relative viability ([6]; first compound 0.02 µM) of 0.381. For the same molecule, the relative viability ([6]; first compound 0.06325 µM) was 0.0542, the relative viability ([6]; first compound 0.2 µM) was 0.0658 and the relative viability ([7]; first compound 0.002 µM) was 0.838. For the same molecule, the relative viability ([7]; first compound 0.006325 µM) was 0.845, the relative viability ([7]; first compound 0.02 µM) was 0.466 and the relative viability ([7]; first compound 0.06325 µM) was 0.57. The relative viability ([7]; first compound 0.2 µM) was 0.187, the relative viability ([8]; first compound 0.002 µM) was 0.655 and the relative viability ([8]; first compound 0.006325 µM) was 0.588. It also gave a relative viability ([8]; first compound 0.02 µM) of 0.286, a relative viability ([8]; first compound 0.06325 µM) of 0.142 and a relative viability ([8]; first compound 0.2 µM) of 0.16. The relative viability ([9]; first compound 0.002 µM) was 0.793, the relative viability ([9]; first compound 0.006325 µM) was 0.779 and the relative viability ([9]; first compound 0.02 µM) was 0.395. For the same molecule, the relative viability ([9]; first compound 0.06325 µM) was 0.242, the relative viability ([9]; first compound 0.2 µM) was 0.233 and the relative viability ([10]; first compound 0.002 µM) was 0.841. For the same molecule, the relative viability ([10]; first compound 0.006325 µM) was 0.801, the relative viability ([10]; first compound 0.02 µM) was 0.853 and the relative viability ([10]; first compound 0.06325 µM) was 0.81. It also gave a relative viability ([10]; first compound 0.2 µM) of 0.791, a relative viability ([11]; first compound 0.002 µM) of 0.802 and a relative viability ([11]; first compound 0.006325 µM) of 0.672. For the same molecule, the relative viability ([11]; first compound 0.02 µM) was 0.58, the relative viability ([11]; first compound 0.06325 µM) was 0.199 and the relative viability ([11]; first compound 0.2 µM) was 0.226. The relative viability ([12]; first compound 0.002 µM) was 0.751, the relative viability ([12]; first compound 0.006325 µM) was 0.762 and the relative viability ([12]; first compound 0.02 µM) was 0.759. It also gave a relative viability ([12]; first compound 0.06325 µM) of 0.163, a relative viability ([12]; first compound 0.2 µM) of 0.0755 and a relative viability ([13]; first compound 0.002 µM) of 0.543. It also gave a relative viability ([13]; first compound 0.006325 µM) of 0.601, a relative viability ([13]; first compound 0.02 µM) of 0.304 and a relative viability ([13]; first compound 0.06325 µM) of 0.492. For the same molecule, the relative viability ([13]; first compound 0.2 µM) was 0.114, the relative viability ([14]; first compound 0.002 µM) was 0.422 and the relative viability ([14]; first compound 0.006325 µM) was 0.359. It also gave a relative viability ([14]; first compound 0.02 µM) of 0.365, a relative viability ([14]; first compound 0.06325 µM) of 0.215 and a relative viability ([14]; first compound 0.2 µM) of 0.152. It also gave a relative viability ([15]; first compound 0.002 µM) of 0.72, a relative viability ([15]; first compound 0.006325 µM) of 0.651 and a relative viability ([15]; first compound 0.02 µM) of 0.533. For the same molecule, the relative viability ([15]; first compound 0.06325 µM) was 0.226, the relative viability ([15]; first compound 0.2 µM) was 0.223 and the relative viability ([16]; first compound 0.002 µM) was 0.553. It also gave a relative viability ([16]; first compound 0.006325 µM) of 0.454, a relative viability ([16]; first compound 0.02 µM) of 0.157 and a relative viability ([16]; first compound 0.06325 µM) of 0.125. It also gave a relative viability ([16]; first compound 0.2 µM) of 0.0972, a relative viability ([17]; first compound 0.002 µM) of 1.01 and a relative viability ([17]; first compound 0.006325 µM) of 0.787. For the same molecule, the relative viability ([17]; first compound 0.02 µM) was 0.142, the relative viability ([17]; first compound 0.06325 µM) was 0.114 and the relative viability ([17]; first compound 0.2 µM) was 0.105. It also gave a relative viability ([18]; first compound 0.002 µM) of 0.261, a relative viability ([18]; first compound 0.006325 µM) of 0.26 and a relative viability ([18]; first compound 0.06325 µM) of 0.27. For the same molecule, the relative viability ([18]; first compound 0.2 µM) was 0.122, the relative viability ([19]; first compound 0.002 µM) was 0.717 and the relative viability ([19]; first compound 0.006325 µM) was 0.44. It also gave a relative viability ([19]; first compound 0.02 µM) of 0.163, a relative viability ([19]; first compound 0.06325 µM) of 0.0992 and a relative viability ([19]; first compound 0.2 µM) of 0.148. The relative viability ([20]; first compound 0.002 µM) was 0.257, the relative viability ([20]; first compound 0.006325 µM) was 0.246 and the relative viability ([20]; first compound 0.02 µM) was 0.199. For the same molecule, the relative viability ([20]; first compound 0.06325 µM) was 0.125, the relative viability ([20]; first compound 0.2 µM) was 0.112 and the relative viability ([21]; first compound 0.002 µM) was 0.361. For the same molecule, the relative viability ([21]; first compound 0.006325 µM) was 0.323, the relative viability ([21]; first compound 0.06325 µM) was 0.412 and the relative viability ([21]; first compound 0.2 µM) was 0.301. It also gave a relative viability ([22]; first compound 0.002 µM) of 0.704, a relative viability ([22]; first compound 0.006325 µM) of 0.632 and a relative viability ([22]; first compound 0.02 µM) of 0.512. The relative viability ([22]; first compound 0.06325 µM) was 0.337, the relative viability ([22]; first compound 0.2 µM) was 0.321 and the relative viability ([23]; first compound 0.002 µM) was 0.797. The relative viability ([23]; first compound 0.006325 µM) was 0.788, the relative viability ([23]; first compound 0.02 µM) was 0.415 and the relative viability ([23]; first compound 0.06325 µM) was 0.642. The relative viability ([23]; first compound 0.2 µM) was 0.377.
